Data as given in paper PMC7921938, “The FDA-Approved Antiviral Raltegravir Inhibits Fascin1-Dependent Invasion of Colorectal Tumor Cells In Vitro and In Vivo” (Cancers, 2021).

Molecular target: T1, Fascin1 (Homo sapiens, UniProt Q16658)
T1 construct: gene FSCN1; full-length human Fascin1; in-house protein from pGEX-6P-2A (N-terminal GST, 3C site) in E. coli BL21-gold(DE3), GST cleaved with PreScission
Assay: intrinsic fluorescence titration
Assay type: binding

Cc1nnc(C(=O)NC(C)(C)c2nc(C(=O)NCc3ccc(F)cc3)c(O)c(=O)n2C)o1 [raltegravir]
Kd: 180 ± 10 µM
